Results on 1 compound are retold here after patent US10793556B2, “8-amino-2-oxo-1,3-diaza-spiro-[4.5]-decane derivatives” (Grünenthal GmbH, priority 2016, dated 2020).

Structures are written as SMILES.

The assay has as its target human mu-opioid peptide (hMOP) receptor (Homo sapiens (Human), UniProt P35372). Kind of assay: hMOP receptor binding assay (SPA, [3H]naloxone).

Sequence of human mu-opioid peptide (hMOP) receptor (P35372 whole entry): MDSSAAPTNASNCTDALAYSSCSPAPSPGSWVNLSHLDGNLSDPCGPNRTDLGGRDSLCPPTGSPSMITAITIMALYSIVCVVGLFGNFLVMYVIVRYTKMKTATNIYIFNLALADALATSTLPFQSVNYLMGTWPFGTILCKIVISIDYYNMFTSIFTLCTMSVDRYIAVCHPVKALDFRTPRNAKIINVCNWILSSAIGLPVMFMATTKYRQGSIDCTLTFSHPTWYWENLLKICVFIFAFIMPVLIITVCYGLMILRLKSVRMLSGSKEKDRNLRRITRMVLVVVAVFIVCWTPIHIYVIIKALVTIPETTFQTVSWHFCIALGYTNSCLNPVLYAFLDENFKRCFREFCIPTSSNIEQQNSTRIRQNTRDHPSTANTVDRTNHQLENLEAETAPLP

Turning to `CN(C)[C@]1(c2ccccc2)CC[C@]2(CC1)CN(CC(C)(C)N1C(=O)CCC1=O)C(=O)N2CC1CC1` [SC_4084, CIS-1-[2-[1-(Cyclopropyl-methyl)-8-dimethylamino-2-oxo-8-phenyl-1,3-diazaspiro[4.5]decan-3-yl]-1,1-dimethyl-ethyl]-pyrrolidine-2,5-dione], the affinity, expressed as Ki, was 2470 nM.
